Targets include Melanocortin receptor 3 (Homo sapiens, UniProt P41968); Motilin receptor (Homo sapiens, UniProt O43193); D(3) dopamine receptor (Homo sapiens, UniProt P35462); Adenosine receptor A2a (Homo sapiens, UniProt P29274).
The target in assay [1] is Voltage-gated inwardly rectifying potassium channel KCNH2 (Homo sapiens, UniProt Q12809). It is filed as functional. To be noted: read-out: AC50.
The target of a further assay is Bile salt export pump (Homo sapiens, UniProt O95342). Format: functional.
The target in assay [2] is T1, Cholecystokinin receptor type A (Homo sapiens, UniProt P32238).
T1 sequence (P32238 whole entry): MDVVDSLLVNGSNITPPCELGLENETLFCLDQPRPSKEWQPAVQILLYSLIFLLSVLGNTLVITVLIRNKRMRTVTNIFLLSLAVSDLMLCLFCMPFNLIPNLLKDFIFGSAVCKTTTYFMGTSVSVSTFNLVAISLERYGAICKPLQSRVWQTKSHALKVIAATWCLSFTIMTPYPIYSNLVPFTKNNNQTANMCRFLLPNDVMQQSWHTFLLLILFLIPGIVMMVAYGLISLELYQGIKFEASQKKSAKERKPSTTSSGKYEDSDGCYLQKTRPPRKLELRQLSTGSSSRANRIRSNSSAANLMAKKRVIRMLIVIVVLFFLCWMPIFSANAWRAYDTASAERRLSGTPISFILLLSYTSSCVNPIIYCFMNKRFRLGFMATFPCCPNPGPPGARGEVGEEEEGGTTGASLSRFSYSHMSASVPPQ

The target of assay [3] is T2, Alpha-2A adrenergic receptor (Homo sapiens, UniProt P08913).
T2 sequence (P08913 whole entry): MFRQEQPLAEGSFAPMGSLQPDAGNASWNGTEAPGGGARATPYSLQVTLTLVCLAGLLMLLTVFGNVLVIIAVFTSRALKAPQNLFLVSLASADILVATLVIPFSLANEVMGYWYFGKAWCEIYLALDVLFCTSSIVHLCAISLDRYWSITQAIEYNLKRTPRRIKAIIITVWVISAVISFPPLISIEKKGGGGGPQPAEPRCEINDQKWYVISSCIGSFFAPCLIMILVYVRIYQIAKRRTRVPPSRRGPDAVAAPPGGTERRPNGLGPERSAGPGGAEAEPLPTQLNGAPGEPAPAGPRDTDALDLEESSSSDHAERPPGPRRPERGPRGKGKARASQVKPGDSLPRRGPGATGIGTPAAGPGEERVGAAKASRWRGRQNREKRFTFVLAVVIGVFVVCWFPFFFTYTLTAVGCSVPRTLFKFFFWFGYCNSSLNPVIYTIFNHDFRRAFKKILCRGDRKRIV
It is filed as functional, cell-based.

Assay [4] addresses Sodium-dependent dopamine transporter (Homo sapiens, UniProt Q01959).
In assay [5] the target is Neuronal acetylcholine receptor subunit alpha-4 (Homo sapiens, UniProt P43681).
For assay [6], the target named is Sodium-dependent noradrenaline transporter (Homo sapiens, UniProt P23975).
For assay [7], the target named is Beta-1 adrenergic receptor (Homo sapiens, UniProt P08588). It is filed as functional.
Assay [8] deals with 5-hydroxytryptamine receptor 2B (Homo sapiens, UniProt P41595). It is filed as functional, cell-based.
The target in assay [9] is T2, Alpha-2A adrenergic receptor. It is filed as functional, cell-based. The source holds these as a separate data set.
The next assay deals with T3, Adenosine receptor A1 (Homo sapiens, UniProt P30542).
T3 sequence (P30542 whole entry): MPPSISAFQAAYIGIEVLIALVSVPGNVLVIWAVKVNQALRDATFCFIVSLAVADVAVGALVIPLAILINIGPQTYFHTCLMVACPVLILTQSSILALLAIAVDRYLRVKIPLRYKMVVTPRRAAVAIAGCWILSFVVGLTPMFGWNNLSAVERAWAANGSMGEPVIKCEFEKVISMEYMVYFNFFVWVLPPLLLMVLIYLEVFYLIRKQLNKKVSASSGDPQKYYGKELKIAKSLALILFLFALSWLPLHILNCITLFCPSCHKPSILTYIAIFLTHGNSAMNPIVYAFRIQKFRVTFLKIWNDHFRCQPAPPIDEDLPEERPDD

For assay [10], the target named is T4, Alpha-2C adrenergic receptor (Homo sapiens, UniProt P18825).
T4 sequence (P18825 whole entry): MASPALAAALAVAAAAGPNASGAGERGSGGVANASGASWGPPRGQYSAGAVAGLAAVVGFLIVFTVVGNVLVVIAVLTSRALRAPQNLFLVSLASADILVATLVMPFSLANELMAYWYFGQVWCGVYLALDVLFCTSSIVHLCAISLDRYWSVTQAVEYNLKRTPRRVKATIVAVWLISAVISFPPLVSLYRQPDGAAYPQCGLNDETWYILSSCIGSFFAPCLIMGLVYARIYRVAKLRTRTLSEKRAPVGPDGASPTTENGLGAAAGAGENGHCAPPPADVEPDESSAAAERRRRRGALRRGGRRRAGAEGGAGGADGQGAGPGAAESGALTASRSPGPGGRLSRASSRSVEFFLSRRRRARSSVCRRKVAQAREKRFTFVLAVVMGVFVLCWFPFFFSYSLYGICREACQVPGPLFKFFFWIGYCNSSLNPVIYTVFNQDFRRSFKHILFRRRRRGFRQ
Format: functional.

Assay [11] deals with T5, Muscarinic acetylcholine receptor M2 (Homo sapiens, UniProt P08172).
T5 sequence (P08172 whole entry): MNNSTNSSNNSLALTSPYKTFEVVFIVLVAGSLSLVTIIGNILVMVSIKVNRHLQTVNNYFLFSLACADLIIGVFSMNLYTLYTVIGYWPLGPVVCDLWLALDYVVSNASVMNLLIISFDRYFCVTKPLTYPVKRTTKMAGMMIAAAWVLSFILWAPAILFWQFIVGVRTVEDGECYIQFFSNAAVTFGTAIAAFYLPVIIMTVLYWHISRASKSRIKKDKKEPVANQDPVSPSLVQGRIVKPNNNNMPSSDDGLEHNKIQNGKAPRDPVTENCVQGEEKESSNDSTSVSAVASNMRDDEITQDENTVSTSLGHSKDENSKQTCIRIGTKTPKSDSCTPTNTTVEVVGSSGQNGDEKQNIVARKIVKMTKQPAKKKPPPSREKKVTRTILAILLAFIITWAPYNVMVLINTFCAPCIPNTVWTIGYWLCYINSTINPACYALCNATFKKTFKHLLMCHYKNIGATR
It is filed as functional, cell-based.

What is called AC50 is the concentration giving half of the maximal activity seen.
Further: assay procedure not described here.

D(3) dopamine receptor, sequence (P35462 whole entry): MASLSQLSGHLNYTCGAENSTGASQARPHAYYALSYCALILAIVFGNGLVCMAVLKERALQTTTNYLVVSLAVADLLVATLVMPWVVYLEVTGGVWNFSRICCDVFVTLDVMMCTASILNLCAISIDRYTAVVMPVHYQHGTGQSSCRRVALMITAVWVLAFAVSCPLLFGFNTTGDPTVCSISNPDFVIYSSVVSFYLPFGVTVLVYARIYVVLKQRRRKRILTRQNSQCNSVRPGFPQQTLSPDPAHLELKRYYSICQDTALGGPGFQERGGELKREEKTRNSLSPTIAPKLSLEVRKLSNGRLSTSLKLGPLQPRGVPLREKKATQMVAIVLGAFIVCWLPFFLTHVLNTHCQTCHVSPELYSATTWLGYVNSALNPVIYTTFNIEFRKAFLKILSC
Bile salt export pump, sequence (O95342 whole entry): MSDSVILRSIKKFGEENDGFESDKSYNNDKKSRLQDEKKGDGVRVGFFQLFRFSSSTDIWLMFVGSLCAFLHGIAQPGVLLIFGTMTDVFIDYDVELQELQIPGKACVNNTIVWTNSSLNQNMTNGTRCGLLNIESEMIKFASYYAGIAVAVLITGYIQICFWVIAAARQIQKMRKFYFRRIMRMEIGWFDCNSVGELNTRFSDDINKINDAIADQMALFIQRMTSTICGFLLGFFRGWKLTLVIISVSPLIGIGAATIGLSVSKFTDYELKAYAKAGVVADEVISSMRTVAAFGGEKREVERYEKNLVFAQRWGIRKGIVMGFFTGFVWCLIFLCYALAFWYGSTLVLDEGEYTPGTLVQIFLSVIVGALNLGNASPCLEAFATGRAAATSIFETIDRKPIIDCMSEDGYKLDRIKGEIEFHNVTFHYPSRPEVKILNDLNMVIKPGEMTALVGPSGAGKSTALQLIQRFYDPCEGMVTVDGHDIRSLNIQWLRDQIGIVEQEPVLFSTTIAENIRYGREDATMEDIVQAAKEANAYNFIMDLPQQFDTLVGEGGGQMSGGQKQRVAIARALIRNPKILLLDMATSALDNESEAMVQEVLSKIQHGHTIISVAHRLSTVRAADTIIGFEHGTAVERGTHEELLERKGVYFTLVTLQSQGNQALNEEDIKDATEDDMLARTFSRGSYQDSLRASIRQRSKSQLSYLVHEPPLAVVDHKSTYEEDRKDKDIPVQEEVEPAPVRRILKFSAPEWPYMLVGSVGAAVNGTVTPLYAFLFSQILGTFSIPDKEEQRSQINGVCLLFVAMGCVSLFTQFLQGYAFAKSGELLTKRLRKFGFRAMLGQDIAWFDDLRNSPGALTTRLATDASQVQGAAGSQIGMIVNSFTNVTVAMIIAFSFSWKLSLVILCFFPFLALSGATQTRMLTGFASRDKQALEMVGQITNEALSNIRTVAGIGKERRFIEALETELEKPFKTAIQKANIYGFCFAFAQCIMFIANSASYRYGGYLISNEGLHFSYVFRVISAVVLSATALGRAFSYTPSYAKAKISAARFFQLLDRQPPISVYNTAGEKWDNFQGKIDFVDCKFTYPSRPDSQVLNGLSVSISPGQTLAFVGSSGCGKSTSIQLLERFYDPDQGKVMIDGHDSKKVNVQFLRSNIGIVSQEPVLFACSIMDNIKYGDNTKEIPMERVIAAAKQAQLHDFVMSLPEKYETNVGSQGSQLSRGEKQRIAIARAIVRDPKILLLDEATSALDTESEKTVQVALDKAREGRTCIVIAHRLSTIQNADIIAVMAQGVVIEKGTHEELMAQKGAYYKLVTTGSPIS
Adenosine receptor A2a, sequence (P29274 whole entry): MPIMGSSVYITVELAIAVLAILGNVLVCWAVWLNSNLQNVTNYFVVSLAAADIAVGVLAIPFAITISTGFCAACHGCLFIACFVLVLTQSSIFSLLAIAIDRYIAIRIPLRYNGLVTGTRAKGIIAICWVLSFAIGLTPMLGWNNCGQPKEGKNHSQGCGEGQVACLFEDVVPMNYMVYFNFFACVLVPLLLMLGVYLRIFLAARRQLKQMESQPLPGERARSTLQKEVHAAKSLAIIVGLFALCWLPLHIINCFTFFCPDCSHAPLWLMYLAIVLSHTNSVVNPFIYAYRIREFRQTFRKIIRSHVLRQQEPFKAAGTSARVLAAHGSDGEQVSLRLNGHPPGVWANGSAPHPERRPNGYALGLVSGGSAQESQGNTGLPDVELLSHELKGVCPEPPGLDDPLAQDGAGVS
Motilin receptor, sequence (O43193 whole entry): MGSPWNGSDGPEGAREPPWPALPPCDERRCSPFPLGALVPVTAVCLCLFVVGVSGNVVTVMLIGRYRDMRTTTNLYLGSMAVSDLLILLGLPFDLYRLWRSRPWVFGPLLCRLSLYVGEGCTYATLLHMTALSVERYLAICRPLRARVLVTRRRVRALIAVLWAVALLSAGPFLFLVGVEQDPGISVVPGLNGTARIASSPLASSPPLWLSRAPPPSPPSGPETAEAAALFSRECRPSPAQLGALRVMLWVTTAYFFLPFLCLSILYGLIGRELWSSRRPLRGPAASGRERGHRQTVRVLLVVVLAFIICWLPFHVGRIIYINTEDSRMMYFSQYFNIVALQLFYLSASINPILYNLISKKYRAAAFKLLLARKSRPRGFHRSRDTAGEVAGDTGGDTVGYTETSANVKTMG
5-hydroxytryptamine receptor 2B, sequence (P41595 whole entry): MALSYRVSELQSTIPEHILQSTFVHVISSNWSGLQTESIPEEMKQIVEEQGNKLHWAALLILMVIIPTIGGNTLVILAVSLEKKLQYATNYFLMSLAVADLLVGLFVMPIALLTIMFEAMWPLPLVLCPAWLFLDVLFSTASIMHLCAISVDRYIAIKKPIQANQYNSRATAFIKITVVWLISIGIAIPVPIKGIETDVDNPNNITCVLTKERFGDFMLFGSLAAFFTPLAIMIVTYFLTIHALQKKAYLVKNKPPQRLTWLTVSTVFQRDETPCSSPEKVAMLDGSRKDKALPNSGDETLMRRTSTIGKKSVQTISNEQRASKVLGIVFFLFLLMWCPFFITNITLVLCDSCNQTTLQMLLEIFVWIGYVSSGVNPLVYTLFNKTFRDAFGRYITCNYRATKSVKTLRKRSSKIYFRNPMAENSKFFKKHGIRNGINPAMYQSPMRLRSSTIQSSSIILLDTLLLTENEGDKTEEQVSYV
Voltage-gated inwardly rectifying potassium channel KCNH2, sequence (Q12809 whole entry): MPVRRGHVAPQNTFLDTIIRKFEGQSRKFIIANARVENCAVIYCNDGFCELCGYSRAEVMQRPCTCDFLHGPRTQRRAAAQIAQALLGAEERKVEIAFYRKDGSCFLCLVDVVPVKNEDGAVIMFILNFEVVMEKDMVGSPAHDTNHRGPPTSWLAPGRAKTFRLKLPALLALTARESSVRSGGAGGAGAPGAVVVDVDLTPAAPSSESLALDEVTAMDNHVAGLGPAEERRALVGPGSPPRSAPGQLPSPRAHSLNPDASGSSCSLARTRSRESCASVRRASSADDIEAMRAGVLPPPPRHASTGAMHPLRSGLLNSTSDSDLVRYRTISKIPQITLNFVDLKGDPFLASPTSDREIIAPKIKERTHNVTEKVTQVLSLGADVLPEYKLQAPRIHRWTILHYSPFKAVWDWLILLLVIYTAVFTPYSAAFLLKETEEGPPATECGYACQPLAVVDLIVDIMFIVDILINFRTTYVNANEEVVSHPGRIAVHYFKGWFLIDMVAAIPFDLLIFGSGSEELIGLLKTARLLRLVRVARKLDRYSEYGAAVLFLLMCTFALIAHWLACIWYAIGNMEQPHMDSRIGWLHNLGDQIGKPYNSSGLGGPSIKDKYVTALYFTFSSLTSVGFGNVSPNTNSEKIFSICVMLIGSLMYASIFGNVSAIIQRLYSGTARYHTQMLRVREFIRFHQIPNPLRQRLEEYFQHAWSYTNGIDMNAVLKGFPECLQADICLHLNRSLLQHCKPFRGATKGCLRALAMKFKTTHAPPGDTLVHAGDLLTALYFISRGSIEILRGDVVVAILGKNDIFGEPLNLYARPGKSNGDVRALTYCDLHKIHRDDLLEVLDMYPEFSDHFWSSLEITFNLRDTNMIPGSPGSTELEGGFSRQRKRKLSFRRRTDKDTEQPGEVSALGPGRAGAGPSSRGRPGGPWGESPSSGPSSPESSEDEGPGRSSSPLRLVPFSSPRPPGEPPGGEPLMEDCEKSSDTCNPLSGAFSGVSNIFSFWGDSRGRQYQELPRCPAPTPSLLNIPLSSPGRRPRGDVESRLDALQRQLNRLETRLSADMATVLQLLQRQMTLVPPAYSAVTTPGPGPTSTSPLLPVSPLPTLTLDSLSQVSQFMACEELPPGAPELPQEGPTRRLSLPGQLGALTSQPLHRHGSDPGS
Melanocortin receptor 3, sequence (P41968 whole entry): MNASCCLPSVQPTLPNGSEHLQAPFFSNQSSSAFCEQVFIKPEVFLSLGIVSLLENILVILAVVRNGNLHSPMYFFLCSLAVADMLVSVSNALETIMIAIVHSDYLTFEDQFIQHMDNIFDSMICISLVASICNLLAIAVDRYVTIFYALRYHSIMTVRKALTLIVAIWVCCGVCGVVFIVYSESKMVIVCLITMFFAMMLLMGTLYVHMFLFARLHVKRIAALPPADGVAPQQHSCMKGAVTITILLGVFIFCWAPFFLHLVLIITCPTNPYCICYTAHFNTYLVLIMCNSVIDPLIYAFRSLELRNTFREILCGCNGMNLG
Beta-1 adrenergic receptor, sequence (P08588 whole entry): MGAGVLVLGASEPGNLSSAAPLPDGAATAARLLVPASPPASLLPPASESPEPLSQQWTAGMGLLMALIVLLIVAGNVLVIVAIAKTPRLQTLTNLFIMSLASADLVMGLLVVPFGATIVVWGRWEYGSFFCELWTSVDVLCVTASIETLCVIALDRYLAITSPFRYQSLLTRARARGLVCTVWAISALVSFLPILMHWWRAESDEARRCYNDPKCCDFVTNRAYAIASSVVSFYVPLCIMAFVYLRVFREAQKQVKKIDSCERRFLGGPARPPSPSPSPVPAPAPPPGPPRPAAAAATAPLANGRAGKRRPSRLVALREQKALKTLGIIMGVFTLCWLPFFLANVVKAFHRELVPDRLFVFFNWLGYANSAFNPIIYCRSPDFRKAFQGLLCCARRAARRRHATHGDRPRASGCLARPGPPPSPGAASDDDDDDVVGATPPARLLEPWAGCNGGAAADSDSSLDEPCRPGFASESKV

Consider `O=C(O)c1cc(O)ccc1O` [GENTISIC ACID], for which the AC50 is more than 30 µM in [1] and more than 300 µM on Bile salt export pump.
Regarding `CN(C)CC(c1ccc(O)cc1)C1(O)CCCCC1` (configuration not stated) [DESVENLAFAXINE], the half-maximal activity concentration (AC50) was more than 30 µM in [1] and more than 300 µM on Bile salt export pump.
For `OCCN1C[C@H](O)[C@@H](O)[C@H](O)[C@H]1CO` [MIGLITOL], the AC50 was more than 30 µM in [1] and more than 300 µM at Bile salt export pump.
`C[N+]1(C)CCC(OC(=O)C(O)(c2ccccc2)C2CCCC2)C1` (configuration not stated) [GLYCOPYRRONIUM BROMIDE]: the half-maximal activity concentration (AC50) is more than 30 µM at Melanocortin receptor 3, more than 10 µM on Motilin receptor, more than 300 µM on Bile salt export pump and more than 30 µM in assay [2].
`C[N+](C)(C)CCO` [CHOLINE]: the AC50 at Bile salt export pump is more than 300 µM.
For `C[C@]12CC[C@@H]3c4ccc(O)cc4CC[C@H]3[C@@H]1C[C@@H](O)[C@@H]2O` [ESTRIOL], the AC50 in [1] was more than 30 µM.
For the compound `CCCCCCOc1nsnc1C1=CCCN(C)C1` [XANOMELINE], the AC50 was 1.3 µM in assay [1] and more than 300 µM at Bile salt export pump.
In the case of `CC(C)(S)[C@@H](N)C(=O)O` [PENICILLAMINE], the values for the AC50 (in assay [1]; on Bile salt export pump) were more than 30 µM and more than 300 µM, respectively.
As to `CN(C)CCN1C(=O)c2ccccc2N(C)c2ccccc21` [DIBENZEPIN], the AC50 in assay [1] is more than 30 µM.
`CCc1oc2ccccc2c1C(=O)c1cc(I)c(O)c(I)c1` [BENZIODARONE]: the AC50 at Bile salt export pump was found to be 6.3 µM.
Take `O=C(CCNNC(=O)c1ccncc1)NCc1ccccc1` [NIALAMIDE]: the AC50 in [1] is more than 30 µM; at Bile salt export pump, more than 300 µM.
For `CC[N+]1(C)[C@@H]2CC(OC(=O)[C@H](CO)c3ccccc3)C[C@H]1[C@@H]1O[C@@H]12` (some centres not stated) [OXITROPIUM], the half-maximal activity concentration (AC50) in assay [1] was more than 30 µM.
Turning to `CC(C)Nc1ncccn1` [ISAXONINE], the results for the AC50 (in assay [1]; on Bile salt export pump) were more than 30 µM and more than 300 µM, respectively.
As for `CC(=O)N[C@@H]1[C@@H](O)[C@H](O)[C@@H](CO)O[C@H]1O` [N-ACETYLGLUCOSAMINE], the AC50 in assay [1] is more than 30 µM.
Consider `CS(=O)(=O)c1ccc(C2=C(c3ccccc3)C(=O)OC2)cc1` [ROFECOXIB], for which the concentration at half-maximal activity (AC50) in assay [1] is more than 30 µM; on Melanocortin receptor 3, more than 30 µM; in [3], more than 30 µM; in assay [4], more than 10 µM; in [5], more than 10 µM; on Motilin receptor, more than 10 µM. In addition, the half-maximal activity concentration (AC50) on D(3) dopamine receptor was more than 10 µM; in [6], more than 10 µM; in assay [7], more than 10 µM; in assay [8], more than 30 µM; at Adenosine receptor A2a, more than 30 µM; in assay [9], more than 30 µM. The AC50 at Adenosine receptor A1 was more than 30 µM; in assay [10], more than 10 µM; in assay [11], more than 30 µM; in assay [2], more than 30 µM.
For the compound `O=C(Cc1ccc(-c2ccccc2)cc1)Nc1ccccn1` [DIFENPIRAMIDE], the concentration at half-maximal activity (AC50) (in assay [1]; in [3]; on D(3) dopamine receptor; in [8]; in assay [9]; in [10]) was more than 30 µM in each case. This compound also registered an AC50 in assay [11] of more than 30 µM.
For `COc1cc(NC(C)CCCN)c2ncccc2c1` (configuration not stated) [PRIMAQUINE], the concentration at half-maximal activity (AC50) was 20 µM in [1]; more than 30 µM on Melanocortin receptor 3; more than 30 µM on Motilin receptor; more than 30 µM at Adenosine receptor A2a; 61 µM on Bile salt export pump; more than 30 µM at Adenosine receptor A1. This compound also came in with a concentration at half-maximal activity (AC50) in [2] of more than 30 µM.
`CN(C)S(=O)(=O)c1ccc2c(c1)N(CCCN1CCC(CCO)CC1)c1ccccc1S2` [PIPOTIAZINE]: the concentration at half-maximal activity (AC50) in assay [1] turned out to be 0.39 µM.
Consider `Oc1c(Cl)cc(Cl)c2cccnc12` [CHLOROXINE], for which the AC50 in [1] is more than 30 µM.
As to `N[C@H](C(=O)O)[C@H](O)c1ccc(O)c(O)c1` [DROXIDOPA], the AC50 in [1] was more than 30 µM.
In the case of `C=C[C@H]1C[N@@]2CC[C@H]1C[C@H]2[C@H](O)c1ccnc2ccc(OC)cc12` [QUININE], on Bile salt export pump, the AC50 is more than 300 µM.
Consider `C=CCc1ccccc1OCC(O)CNC(C)C` (configuration not stated) [ALPRENOLOL], for which the AC50 in assay [1] was 9.1 µM; at Melanocortin receptor 3, more than 30 µM; in assay [3], more than 30 µM; in [4], more than 30 µM; in [5] it was more than 30 µM; on Motilin receptor, more than 30 µM. Further, the AC50 on D(3) dopamine receptor is more than 30 µM; in [6], 30 µM; in assay [8], more than 30 µM; at Adenosine receptor A2a, more than 30 µM; in assay [9], more than 30 µM; at Adenosine receptor A1, more than 30 µM. The AC50 in assay [10] is 14.4 µM; in [11], more than 30 µM; in assay [2], more than 30 µM.
Consider `CC(C)(C)NC[C@H](O)COc1ccccc1C1CCCC1` [PENBUTOLOL], for which the values for the AC50 (in [1]; at Bile salt export pump) were 11 µM and more than 300 µM, respectively.
In the case of `CCC1=C(C)CN(C(=O)NCCc2ccc(S(=O)(=O)NC(=O)N[C@H]3CC[C@H](C)CC3)cc2)C1=O` [GLIMEPIRIDE], the AC50 in [1] was more than 30 µM; on Bile salt export pump it was 14 µM.
With `CN(C)[C@@H](c1cccc(O)c1)[C@H]1CCCC[C@H]1O` [CIRAMADOL], the concentration at half-maximal activity (AC50) in assay [1] was more than 30 µM.
As for `COC(c1ccccc1)(c1ccccc1)[C@H](Oc1nc(C)cc(C)n1)C(=O)O` [AMBRISENTAN], the concentration at half-maximal activity (AC50) in assay [1] is more than 30 µM; at Bile salt export pump it was 200 µM.
In the case of `CCOC(=O)[C@H](CCc1ccccc1)N[C@@H](C)C(=O)N1[C@H](C(=O)O)C[C@H]2CCCC[C@@H]21` [TRANDOLAPRIL], the concentration at half-maximal activity (AC50) is more than 30 µM in assay [1] and 220 µM at Bile salt export pump.

These data come from ChEMBL document CHEMBL5291721, “A preclinical secondary pharmacology resource illuminates target-adverse drug reaction associations of marketed drugs” (Nat Commun, 2023).
